The test system of test [1] is barley seedlings. In words: plant assay: pigment neogenesis in etiolated barley seedlings. The following applies: barley seedlings subjected to fosmidomycin treatment, FIG. 8. It counts as in vivo. The source says: Since this biosynthetic pathway is a metabolic pathway which is exclusively located in the chloroplasts, it offers optimal target enzymes for the development of inhibitors. Since, according to current knowledge, no enzyme which is identical with, or similar to, Arabidopsis thaliana DXPRI is present in other higher organisms, it can be assumed that inhibitors should have a very specific action on plants. The site of action of an inhibitor, namely fosmidomycin (3-(N-formyl-N-hydroxyamino)propylphosphonic acid; Fujisawa Pharmaceutical Co.) was identified as being a DXPRI. […] The following abbreviations were used in FIG. 7: DOX=1-deoxy-D-xylulose, ME=methylerythritol. The same action is found in a plant assay in which barley seedlings are subjected to fosmidomycin treatment and then examined for their chlorophyll and carotenoid content.
FIG. 8. Effect of fosmidomycin on pigment neogenesis in etiolated barley seedlings.

In test [2] the test system is Arabidopsis thaliana DXPRI. In words: DXPRI enzyme test (heterologously expressed in E. coli, TLC/autoradiography of 14C product). It counts as biochemical. How it is done: The transgenic strain was incubated in the growth medium “2×YT” (per 1 l: Bacto-tryptone 16 g, yeast extract 10 g, NaCl 5 g). The cells were grown at 37° C. to an OD560 nm of 0.6. After IPTG (1 MM) had been added, they were cultured for a further 10 minutes at 37° C. and then for a further 4 hours at 22° until they were harvested. The cells were centrifuged off and washed in 1% NaCl. After the cells had been disrupted (50 to 500 ml of cell culture (OD560 nm of 1.0) by means of a French press, a crude protein extract was used for enzyme tests (in 4 ml of extraction buffer (Tris/HCl (pH 7.5) 100 mM, MgCl2 5 mM, DTT 2 mM, PMSF 0.1 mM). For storage, the crude extracts together with 20% of glycerol were frozen at −20° C.
For the enzyme test, 15 μl (diluted to 1 to 7 mg of protein/ml) of protein extract were incubated for 30 minutes at 30° C. with MnCl2 (1 mM), NaF (5 mM), NADPH2 (0.5 mM) and ^14C-1-deoxy-D-xylulose-5-phosphate (0.25 mM, 3 kBq). The reaction was stopped at 100° C. (30 seconds) by adding CaCl2 (to 100 mM) and alkaline phosphatase (0.5 units). The product was dephosphorylated for 2 hours at 30° C. Detection was carried out by subjecting the product to separation by thin-layer chromatography on silica gel 60 (Merck) with acetone/ethyl acetate/water (50+50+2) with subsequent evaluation by Instant Imager. […]

The subject of test [3] is mevalonate formation. The following applies: cited from earlier work.

In the case of `O=CN(O)CCCP(=O)(O)O` [fosmidomycin, 3-(N-formyl-N-hydroxyamino)propylphosphonic acid], in test [1], the carotenoid content entry was “greatly reduced” and the chlorophyll content entry was “greatly reduced”. The “inhibition of the enzymatic activity of DXPRI” value in test [2] (biochemical assay, FIG. 7) is reported as “efficient inhibition”. Also, in test [2] (fosmidomycin at various concentrations, crude protein extract, 14C-1-deoxy-D-xylulose-5-phosphate substrate), the “formation of ME (methylerythritol)” value is “inhibited efficiently”.
For the compound mevinolin, in test [3] (cytoplasma), the “sterol biosynthesis in the cytoplasma” value was “inhibition”. Besides, the “prenyl lipid formation in the plastids” value in test [3] (plastids) is “remains unaffected”.

These data come from US6765129B1, “Overexpression of a DNA sequence coding for a 1-desoxy-d-xylulose-5-phosphate reductoisomerase in plants” (BASF Aktiengesellschaft, priority 1999, dated 2004).
